# Assays:
# [1] = biological target: T1, HER2 (Homo sapiens, UniProt P04626); experiment: Inhibition of HER2 Phosphorylation in Calu3 Tumor Cell Line; assay type: cell-based; conditions: Calu3 cells; for percentage of inhibition of HER2 phosphorylation compared with the reference compound: comparison with reference compound (Example 4, p. 88, WO 01/77107); for inhibition at 1 µM: Calu-3, read-out: Percent inhibition of HER2-phosphorylation
# T1 construct: endogenous in cells; host or cells: Calu3 tumor cell line
# Protocol: Inhibition of HER2 Phosphorylation in Calu3 Tumor Cell Line
# 2×10^5 Calu3 cells per well were plated in a 12-well plate. After 4 days cells were starved for 16 h in DMEM (Dulbecco's Modified Eagle Medium)/0.5% FCS/1% glutamine. During this time cells were incubated with […] of a compound according to this invention. Afterwards cells were lysed in lyses buffer containing 1% Triton, 10% glycerol, 1 mM EGTA, 1.5 mM MgCl2, 150 mM NaCl, 50 mM Hepes pH 7.5, 1 mM PMSF, 10 μg/mL aprotinin and […] orthovanadate. Cell lysates were analyzed on a SDS PAGE and after transfer to a nitrocellulose membrane detected with a rabbit antibody specifically recognizing the pY 1248 in HER2 (Cell Signaling). After incubation with an anti rabbit antibody coupled to POD (Peroxidase from Biorad, Munich, Germany) signals were detected by chemiluminescence (ECL, Amersham). Inhibition of HER2 phosphorylation is calculated as percentage of the DMSO treated control. This percentage is calculated according to the following formula: Inhibition in %=100−(Phosphorylated-HER2-Signal of Test Sample*100/Phosphorylated-HER2-Signal DMSO-control).
# [2] = compound concentration 1 μM, 16 h incubation, pY 1248 in HER2, percentage of the DMSO treated control
# T1 sequence (P04626 23-1255): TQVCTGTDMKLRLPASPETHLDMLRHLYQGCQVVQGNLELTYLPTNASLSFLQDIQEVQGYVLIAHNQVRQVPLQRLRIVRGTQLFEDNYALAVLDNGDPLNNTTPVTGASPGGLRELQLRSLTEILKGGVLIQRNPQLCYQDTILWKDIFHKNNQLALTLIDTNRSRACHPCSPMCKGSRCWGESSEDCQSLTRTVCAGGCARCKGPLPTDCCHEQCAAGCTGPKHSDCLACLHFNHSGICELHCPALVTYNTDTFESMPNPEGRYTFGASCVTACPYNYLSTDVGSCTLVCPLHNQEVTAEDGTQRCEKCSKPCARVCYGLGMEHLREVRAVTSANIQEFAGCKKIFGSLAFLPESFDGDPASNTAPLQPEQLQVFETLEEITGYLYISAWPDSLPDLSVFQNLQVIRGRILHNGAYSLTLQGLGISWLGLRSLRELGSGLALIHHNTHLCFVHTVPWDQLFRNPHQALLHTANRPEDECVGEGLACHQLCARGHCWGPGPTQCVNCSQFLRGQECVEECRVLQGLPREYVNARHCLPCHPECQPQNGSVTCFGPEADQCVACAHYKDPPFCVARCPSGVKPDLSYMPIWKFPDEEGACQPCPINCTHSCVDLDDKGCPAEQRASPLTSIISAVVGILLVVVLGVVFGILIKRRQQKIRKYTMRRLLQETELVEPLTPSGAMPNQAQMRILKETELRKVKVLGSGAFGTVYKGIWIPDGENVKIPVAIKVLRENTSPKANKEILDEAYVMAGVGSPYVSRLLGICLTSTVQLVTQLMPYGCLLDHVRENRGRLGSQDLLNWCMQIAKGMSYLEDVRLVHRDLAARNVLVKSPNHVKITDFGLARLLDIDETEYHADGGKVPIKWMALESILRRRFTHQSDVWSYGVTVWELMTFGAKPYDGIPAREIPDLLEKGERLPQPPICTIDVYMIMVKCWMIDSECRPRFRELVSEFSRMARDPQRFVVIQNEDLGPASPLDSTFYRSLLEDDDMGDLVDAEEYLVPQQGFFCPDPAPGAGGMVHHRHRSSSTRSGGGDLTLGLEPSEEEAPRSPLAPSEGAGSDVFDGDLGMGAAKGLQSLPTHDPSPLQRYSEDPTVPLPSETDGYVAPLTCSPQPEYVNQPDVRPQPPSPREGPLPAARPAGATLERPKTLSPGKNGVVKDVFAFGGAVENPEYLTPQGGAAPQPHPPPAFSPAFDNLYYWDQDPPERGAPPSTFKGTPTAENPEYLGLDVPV
Structure (SMILES),"inhibition at 1 µM [1, 2]","Percent inhibition of HER2-phosphorylation [1, 2]",melting point,percentage of inhibition of HER2 phosphorylation compared with the reference compound [1]
"FS(F)(F)(F)(F)c1ccc(C=Cc2nc(COc3ccc(CCCCn4ccnc4)cc3)co2)cc1 [example 1, 4-[4-(4-Imidazol-1-yl-butyl)-phenoxymethyl]-2-[2-(4-pentafluorosulfanyl-phenyl)-vinyl]-oxazole]",87.5%,–,–,higher percentage of inhibition of phosphorylation
"FS(F)(F)(F)(F)c1ccc(/C=C/c2nc(COc3ccc(CCCCn4ccnn4)cc3)co2)cc1 [example 4, 1-[4-(4-{2-[(E)-2-(-4-Pentafluorosulfanyl-phenyl)-vinyl]-oxazol-4-ylmethoxy}-phenyl)-butyl]-1H-[1,2,3]triazole]",86.1%,–,–,higher percentage of inhibition of phosphorylation
"FS(F)(F)(F)(F)c1ccc(C=Cc2nc(COc3ccc(COCCn4ccnn4)cc3)co2)cc1 [example 9, 1-[2-(4-{2-[-4-(Pentafluorosulfanyl-phenyl)-vinyl]-oxazol-4-ylmethoxy}-benzyloxy)-ethyl]-1H-[1,2,3]-triazole]",–,52.9%,–,higher percentage of inhibition of phosphorylation
"O=S(=O)(CCn1ccnn1)Cc1ccc(OCc2coc(/C=C/c3ccc(S(F)(F)(F)(F)F)cc3)n2)cc1 [example 11, 1-[2-(4-{2-[(E)-2-(4-Pentafluorosulfanyl-phenyl)-vinyl]-oxazol-4-ylmethoxy}-phenylmethanesulfonyl)-ethyl]-1H-[1,2,3]triazole]",59.7%,–,–,higher percentage of inhibition of phosphorylation

# More lines, main results first:
"inhibition at 1 µM [1, 2]","Percent inhibition of HER2-phosphorylation [1, 2]",melting point,Structure (SMILES),percentage of inhibition of HER2 phosphorylation compared with the reference compound [1]
68.8%,–,–,"FS(F)(F)(F)(F)c1ccc(C=Cc2nc(COc3ccc(C=CCCn4ccnn4)cc3)co2)cc1 [example 12, 1-[4-(4-{2-[2-(4-Pentafluorosulfanyl-phenyl)-vinyl]-oxazol-4-ylmethoxy}-phenyl)-but-3-enyl]-1H-[1,2,3]triazole]",higher percentage of inhibition of phosphorylation
71.7%,–,170 to 172 °C,"O=S(=O)(NCCn1ccnn1)c1ccc(OCc2coc(C=Cc3ccc(S(F)(F)(F)(F)F)cc3)n2)cc1 [example 14, N-(2-[1,2,3]Triazol-1-yl-ethyl)-4-{2-[2-(4-pentafluorosulfanyl-phenyl)-vinyl]-oxazol-4-ylmethoxy}-benzenesulfonamide]",higher percentage of inhibition of phosphorylation
97.5%,–,–,"FS(F)(F)(F)(F)c1ccc(C=Cc2nc(COc3ccc(OCCCn4ccnn4)cc3)co2)cc1 [example 15, 1-[3-(4-{2-[2-(4-Pentafluorosulfanyl-phenyl)-vinyl]-oxazol-4-ylmethoxy}-phenoxy)-propyl]-1H-[1,2,3]triazole]",higher percentage of inhibition of phosphorylation
91.9%,–,–,"FS(F)(F)(F)(F)c1ccc(C=Cc2nc(CNc3ccc(CCCCn4ccnn4)cc3)co2)cc1 [example 16, [4-(4-[1,2,3]Triazol-1-yl-butyl)-phenyl]-{2-[2-(4-pentafluorosulfanyl-phenyl)-vinyl]-oxazol-4-ylmethyl}-amine]",higher percentage of inhibition of phosphorylation

# From patent US7235574B2, “Pentafluorosulfanyl compounds” (Hoffmann-La Roche Inc., priority 2004, dated 2007)
